Assay results taken from ChEMBL document CHEMBL1140422, “A new bisintercalating anthracycline with picomolar DNA binding affinity” (J Med Chem, 2005).

test system: Jurkat; experiment: Cytotoxicity against Jurkat T lymphocytes by MTT assay; format: functional, cell-based; details: Homo sapiens

First: COc1cccc2c1C(=O)c1c(O)c3c(c(O)c1C2=O)C[C@@](O)(C(C)=O)C[C@@H]3O[C@H]1C[C@H](N)[C@H](O)[C@H](C)O1 [DAUNORUBICIN]
Second: COc1cccc2c1C(=O)c1c(O)c3c(c(O)c1C2=O)C[C@@](O)(C(C)=O)C[C@@H]3O[C@H]1C[C@H](NCc2ccc(CN[C@@H]3C[C@@H](O[C@H]4C[C@](O)(C(C)=O)Cc5c(O)c6c(c(O)c54)C(=O)c4c(OC)cccc4C6=O)O[C@H](C)[C@@H]3O)cc2)[C@H](O)[C@H](C)O1
The IC50 of the first is 4.7-fold higher: 82.6 nM for the first, 17.7 nM for the second.

With `COc1cccc2c1C(=O)c1c(O)c3c(c(O)c1C2=O)C[C@@](O)(C(C)=O)C[C@@H]3O[C@H]1C[C@H](NCc2cccc(CN[C@@H]3C[C@@H](O[C@H]4C[C@](O)(C(C)=O)Cc5c(O)c6c(c(O)c54)C(=O)c4c(OC)cccc4C6=O)O[C@H](C)[C@@H]3O)c2)[C@H](O)[C@H](C)O1` the IC50 was 17 nM.

First: COc1cccc2c1C(=O)c1c(O)c3c(c(O)c1C2=O)C[C@@](O)(C(C)=O)C[C@@H]3O[C@H]1C[C@H](N)[C@H](O)[C@H](C)O1 [DAUNORUBICIN]
Second: COc1cccc2c1C(=O)c1c(O)c3c(c(O)c1C2=O)C[C@@](O)(C(C)=O)C[C@@H]3O[C@H]1C[C@H](NCc2ccc(CN[C@@H]3C[C@@H](O[C@H]4C[C@](O)(C(C)=O)Cc5c(O)c6c(c(O)c54)C(=O)c4c(OC)cccc4C6=O)O[C@H](C)[C@@H]3O)cc2)[C@H](O)[C@H](C)O1
The IC75 of the first is 3-fold higher: 182 nM for the first, 60 nM for the second.

Work on `COc1cccc2c1C(=O)c1c(O)c3c(c(O)c1C2=O)C[C@@](O)(C(C)=O)C[C@@H]3O[C@H]1C[C@H](NCc2cccc(CN[C@@H]3C[C@@H](O[C@H]4C[C@](O)(C(C)=O)Cc5c(O)c6c(c(O)c54)C(=O)c4c(OC)cccc4C6=O)O[C@H](C)[C@@H]3O)c2)[C@H](O)[C@H](C)O1` yielded an IC75 of 53.5 nM.
